Experimental data taken from PubChem BioAssay AID248 (DTP/NCI, 2004).
“And” between values parts separate entries of the source, which are not always exact repeats. Equal values may be shown once. Toxic doses and inconclusive results are not listed. No stated cut-off is given here; in the data, active means T/C of 150% or more; inactive means T/C below 125%.

Tested on: L1210 leukemia ip in BDF1 mice, survival T/C
Experiment: NCI In Vivo Anticancer Drug Screen. Data for tumor model L1210 Leukemia (intraperitoneal) in B6D2F1 (BDF1) mice
Details: endpoint: mean survival time, higher = longer survival
Procedure, shortened: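 In this screen, tumor-bearing mice given compound are compared to those given vehicle, and their survival values are reported as a treated-to-control quotient.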

[1] = dose: 100.0 mg/kg/injection, schedule: Q01DX001 (ip), vehicle: saline with Tween-80
[2] = dose: 200.0 mg/kg/injection, schedule: Q01DX001 (ip), vehicle: saline with Tween-80
[3] = dose: 100.0 mg/kg/injection, schedule: Q04DX003 (ip), vehicle: saline with Tween-80
[4] = dose: 200.0 mg/kg/injection, schedule: Q04DX003 (ip), vehicle: saline with Tween-80
[5] = dose: 400.0 mg/kg/injection, schedule: Q04DX003 (ip), vehicle: saline with Tween-80
[6] = dose: 100.0 mg/kg/injection, schedule: Q01DX001 (ip), vehicle: saline
[7] = dose: 200.0 mg/kg/injection, schedule: Q01DX001 (ip), vehicle: saline
[8] = dose: 400.0 mg/kg/injection, schedule: Q01DX001 (ip), vehicle: saline
[9] = dose: 100.0 mg/kg/injection, schedule: Q01DX001 (ip), vehicle: Klucel (hydroxypropylcellulose) (HPC)
[10] = dose: 200.0 mg/kg/injection, schedule: Q01DX001 (ip), vehicle: Klucel (hydroxypropylcellulose) (HPC)
[11] = dose: 100.0 mg/kg/injection, schedule: Q04DX003 (ip), vehicle: Klucel (hydroxypropylcellulose) (HPC)
[12] = dose: 200.0 mg/kg/injection, schedule: Q04DX003 (ip), vehicle: Klucel (hydroxypropylcellulose) (HPC)
[13] = dose: 400.0 mg/kg/injection, schedule: Q04DX003 (ip), vehicle: Klucel (hydroxypropylcellulose) (HPC)
[14] = dose: 100.0 mg/kg/injection, schedule: Q01DX009 (ip), vehicle: Klucel (hydroxypropylcellulose) (HPC)
[15] = dose: 200.0 mg/kg/injection, schedule: Q01DX009 (ip), vehicle: Klucel (hydroxypropylcellulose) (HPC)
[16] = dose: 400.0 mg/kg/injection, schedule: Q01DX009 (ip), vehicle: Klucel (hydroxypropylcellulose) (HPC)
[17] = dose: 100.0 mg/kg/injection, schedule: Q04DX002 (ip), vehicle: saline with Tween-80
[18] = dose: 50.0 mg/kg/injection, schedule: Q01DX009 (ip), vehicle: saline
[19] = dose: 100.0 mg/kg/injection, schedule: Q01DX009 (ip), vehicle: saline
[20] = dose: 200.0 mg/kg/injection, schedule: Q04DX002 (ip), vehicle: saline with Tween-80
[21] = dose: 400.0 mg/kg/injection, schedule: Q04DX002 (ip), vehicle: saline with Tween-80

Measured: T/C

Nc1ncnc(N)c1NC(=O)/C=C/c1ccccc1
inactive: [1] 116 % of control | [2] 101 % of control

CC(=O)OCC(O)C(O)C(O)C(O)CO (stereo not drawn)
inactive: [3] 91 % of control | [4] 94 % of control | [5] 91 % of control

O=C(Nc1ccc([N+](=O)[O-])cc1)N1CCCCC1
inactive: [6] 95 % of control | [7] 95 % of control | [8] 97 % of control

O=C(Nc1cc([N+](=O)[O-])cc([N+](=O)[O-])c1O)C(F)(F)F
inactive: dose: 25.0 mg/kg/injection, schedule: Q01DX001 (ip), vehicle: Klucel (hydroxypropylcellulose) (HPC) 102 % of control | dose: 50.0 mg/kg/injection, schedule: Q01DX001 (ip), vehicle: Klucel (hydroxypropylcellulose) (HPC) 96 % of control | [9] 100 % of control and 120 % of control | [10] 98 % of control

COCC(=O)Oc1cc(-c2ccc(C)cc2C)c(OC(=O)COC)c(-c2ccc(C)cc2C)c1
inactive: dose: 75.0 mg/kg/injection, schedule: Q04DX003 (ip), vehicle: Klucel (hydroxypropylcellulose) (HPC) 90 % of control | [9] 90 % of control | dose: 150.0 mg/kg/injection, schedule: Q04DX003 (ip), vehicle: Klucel (hydroxypropylcellulose) (HPC) 87 % of control | [10] 91 % of control | dose: 300.0 mg/kg/injection, schedule: Q04DX003 (ip), vehicle: Klucel (hydroxypropylcellulose) (HPC) 93 % of control and 94 % of control | dose: 400.0 mg/kg/injection, schedule: Q01DX001 (ip), vehicle: Klucel (hydroxypropylcellulose) (HPC) 101 % of control

C=C(C)Cc1c(C)c(C)c(OS(=O)(=O)c2ccc(Br)cc2)c(C)c1C
inactive: dose: 50.0 mg/kg/injection, schedule: Q04DX003 (ip), vehicle: gum acacia 89 % of control | dose: 100.0 mg/kg/injection, schedule: Q04DX003 (ip), vehicle: gum acacia 89 % of control | dose: 200.0 mg/kg/injection, schedule: Q04DX003 (ip), vehicle: gum acacia 91 % of control

Cc1ccc(C)c2c1[nH]c1c(C)c3ccncc3c(C)c12
inactive: dose: 25.0 mg/kg/injection, schedule: Q01DX Z (ip), vehicle: saline 103 % of control | dose: 50.0 mg/kg/injection, schedule: Q01DX Z (ip), vehicle: saline 103 % of control | [6] 100 % of control | dose: 100.0 mg/kg/injection, schedule: Q01DX Z (ip), vehicle: saline 112 % of control | [7] 96 % of control | [8] 103 % of control

CN(C)c1ncccc1O
inactive: [6] 95 % of control | [7] 101 % of control | [8] 106 % of control

CCCCCCCCCCCCC1C2CCCCC2C2CCCCC12 (stereo not drawn)
inactive: [6] 92 % of control | [7] 92 % of control | [8] 92 % of control

Cc1ccc(S(=O)(=O)OCCN(CCOS(=O)(=O)c2ccc(C)cc2)c2cccc(F)c2)cc1
inactive: dose: 50.0 mg/kg/injection, schedule: Q01DX001 (ip), vehicle: carboxymethylcellulose (CMC) 101 % of control and 114 % of control | dose: 90.0 mg/kg/injection, schedule: Q01DX001 (ip), vehicle: carboxymethylcellulose (CMC) 103 % of control and 122 % of control | dose: 100.0 mg/kg/injection, schedule: Q01DX001 (ip), vehicle: carboxymethylcellulose (CMC) 103 % of control and 106 % of control | dose: 135.0 mg/kg/injection, schedule: Q01DX001 (ip), vehicle: carboxymethylcellulose (CMC) 106 % of control and 110 % of control | dose: 300.0 mg/kg/injection, schedule: Q01DX001 (ip), vehicle: carboxymethylcellulose (CMC) 115 % of control and 120 % of control | dose: 400.0 mg/kg/injection, schedule: Q01DX001 (ip), vehicle: carboxymethylcellulose (CMC) 109 % of control and 116 % of control

CC(=O)C(CCS(C)(=O)=O)(CCS(C)(=O)=O)C(=O)O
inactive: [11] 107 % of control | [12] 94 % of control | [13] 103 % of control

CN(C)CCSc1ncnc2nc[nH]c12
inactive: dose: 100.0 mg/kg/injection, schedule: Q04DX003 (ip), vehicle: saline 94 % of control | dose: 200.0 mg/kg/injection, schedule: Q04DX003 (ip), vehicle: saline 99 % of control | dose: 400.0 mg/kg/injection, schedule: Q04DX003 (ip), vehicle: saline 89 % of control

CCC1NC(C)(C)CC1=C(C)C (stereo not drawn)
inactive: dose: 3.13 mg/kg/injection, schedule: Q01DX009 (ip), vehicle: saline 101 % of control | dose: 6.25 mg/kg/injection, schedule: Q01DX009 (ip), vehicle: saline 96 % of control | dose: 12.5 mg/kg/injection, schedule: Q01DX009 (ip), vehicle: saline 96 % of control

O=C(OCCOCCOCCOC(=O)c1ccccc1)c1ccccc1
inactive: [14] 96 % of control | [11] 112 % of control | [15] 96 % of control | [12] 102 % of control | [16] 102 % of control | [13] 99 % of control

O=C1CC=C2C3CC4N(CCC45c4ccccc4N1C25)C/C3=C\CBr (stereo not drawn)
inactive: dose: 9.38 mg/kg/injection, schedule: Q01DX001 (ip), vehicle: other 100 % of control

COc1ccc(C(C)CO)cc1 (stereo not drawn)
inactive: dose: 50.0 mg/kg/injection, schedule: Q01DX009 (ip), vehicle: saline with Tween-80 102 % of control | dose: 100.0 mg/kg/injection, schedule: Q01DX009 (ip), vehicle: saline with Tween-80 94 % of control | dose: 200.0 mg/kg/injection, schedule: Q01DX009 (ip), vehicle: saline with Tween-80 102 % of control

C=CC(=O)c1ccccc1
inactive: dose: 25.0 mg/kg/injection, schedule: Q04DX002 (ip), vehicle: saline with Tween-80 100 % of control | dose: 50.0 mg/kg/injection, schedule: Q04DX002 (ip), vehicle: saline with Tween-80 87 % of control | [17] 94 % of control

O=C1CCC2(CCC(=O)O2)O1
inactive: [18] 100 % of control | [19] 100 % of control | dose: 200.0 mg/kg/injection, schedule: Q01DX009 (ip), vehicle: saline 92 % of control

COc1ccc(OC)c(-n2cccc2)c1
inactive: [17] 87 % of control | [20] 103 % of control | [21] 94 % of control

Cc1cc(=O)n(-c2ccc(N)cc2)n1C
inactive: [11] 100 % of control | [12] 100 % of control | [13] 101 % of control

O=C(O)c1ccccc1N=Cc1ccccc1
inactive: [17] 93 % of control | [20] 120 % of control | [21] 101 % of control

CC(C)=CCC(C#N)(CCN(C)C)c1ccc2ccccc2c1 (stereo not drawn)
inactive: dose: 25.0 mg/kg/injection, schedule: Q01DX009 (ip), vehicle: saline 95 % of control | [18] 97 % of control | [19] 95 % of control

CCCCC(=O)N/N=C/c1ccc(OCC)c(OCC)c1
inactive: [6] 102 % of control | [7] 98 % of control | [8] 102 % of control

O=C1C=C(c2ccccc2)C(O)(c2ccccc2)O1 (stereo not drawn)
inactive: [1] 106 % of control | [2] 103 % of control | dose: 400.0 mg/kg/injection, schedule: Q01DX001 (ip), vehicle: saline with Tween-80 101 % of control

COc1ccc(/C=N/NC(=O)Nc2ccccc2)cc1OC
inactive: [14] 98 % of control | [15] 89 % of control | [16] 93 % of control

O=C1NC(c2ccccc2)C(=O)NC1c1ccccc1 (stereo not drawn)
inactive: [3] 94 % of control | [4] 86 % of control | [5] 89 % of control
